These are literature values, as cited in US9078925B2, “Pharmaceutical semi-solid composition of isotretinoin” (GALEPHAR PHARMACEUTICAL RESEARCH, INC., priority 2012, dated 2015).

Where two headings read alike, the source gives them in different places.

Test in series [1]: not given
This is another data set of the same source.

On to `CC1=C(/C=C/C(C)=C/C=C/C(C)=C\C(=O)O)C(C)(C)CCC1` [Isotretinoin, 13-cis retinoic acid], for which the “bioavailability after an oral intake” value is 25% (fasted conditions) and 40% (fed conditions). In addition, under “of treatment”, the “time to reach steady-state concentrations” value is listed as 1 week. In series [1], the solubility in water result is reported as “poorly soluble in water”.
